These are literature values, as cited in patent publication US11959122B2.

The subject of this series is microbial flora in the target watershed. The following applies: determined by EUCAST database; unit assumed; cited from earlier work.
For the compound `CC[C@H]1OC(=O)[C@H](C)[C@@H](O[C@H]2C[C@@](C)(OC)[C@@H](O)[C@H](C)O2)[C@H](C)[C@@H](O[C@@H]2O[C@H](C)C[C@H](N(C)C)[C@H]2O)[C@](C)(O)C[C@@H](C)/C(=N\OCOCCOC)[C@H](C)[C@@H](O)[C@]1(C)O` [Roxithromycin], the Observed MIC is 2 µg/mL. For `Cc1onc(-c2ccccc2Cl)c1C(=O)N[C@@H]1C(=O)N2[C@@H]1SC(C)(C)[C@@H]2C(=O)O` [Cloxacillin], the Observed MIC is 64 µg/mL. Regarding `CC(=O)N1CCN(c2ccc(OCC3COC(Cn4ccnc4)(c4ccc(Cl)cc4Cl)O3)cc2)CC1` (stereo not drawn) [Ketoconazole], the Observed MIC is 4 µg/mL. For the compound `OC(Cn1cncn1)(Cn1cncn1)c1ccc(F)cc1F` [Fluconazol], the Observed MIC is 64 µg/mL. As to `CC[C@H]1OC(=O)[C@H](C)C(=O)[C@H](C)[C@@H](O[C@@H]2O[C@H](C)C[C@H](N(C)C)[C@H]2O)[C@](C)(OC)C[C@@H](C)C(=O)[C@H](C)[C@H]2N(CCCCn3cnc(-c4cccnc4)c3)C(=O)O[C@]12C` [Telithromycin], the Observed MIC is 16 µg/mL.

Take `C=C[C@]1(C)C[C@@H](OC(=O)CS[C@@H]2C[C@H]3CC[C@@H](C2)N3C)[C@]2(C)[C@H](C)CC[C@]3(CCC(=O)[C@H]32)[C@@H](C)[C@@H]1O` [Retapamulin]: the Observed MIC is 64 µg/mL. With `CC[C@H]1OC(=O)[C@H](C)[C@@H](O[C@H]2C[C@@](C)(OC)[C@@H](O)[C@H](C)O2)[C@H](C)[C@@H](O[C@@H]2O[C@H](C)C[C@H](N(C)C)[C@H]2O)[C@](C)(O)C[C@@H](C)CN(C)[C@H](C)[C@@H](O)[C@]1(C)O` [Azithromycin], the Observed MIC was 16 µg/mL.

With `CO/N=C(\C(=O)N[C@@H]1C(=O)N2C(C(=O)O)=C(CSC(=O)c3ccco3)CS[C@H]12)c1csc(N)n1` [Ceftiofur], the Observed MIC is 8 µg/mL. Consider `CCN1CCN(c2cc3c(cc2F)c(=O)c(C(=O)O)cn3C2CC2)CC1` [Enrofloxacin], for which the Observed MIC was 8 µg/mL. `CO/N=C(\C(=O)N[C@@H]1C(=O)N2C(C(=O)[O-])=C(C[N+]3(C)CCCC3)CS[C@H]12)c1csc(N)n1` [Cefepime]: the Observed MIC is 8 µg/mL. Consider `C/C(=C\C(=O)OCCCCCCCCC(=O)O)C[C@@H]1OC[C@H](C[C@@H]2O[C@H]2[C@@H](C)[C@H](C)O)[C@@H](O)[C@H]1O` [Mupirocin], for which the Observed MIC is 32 µg/mL. For the compound `C[C@@H](O)[C@H]1C(=O)N2C(C(=O)O)=C(S[C@@H]3CN[C@H](C(=O)Nc4cccc(C(=O)O)c4)C3)[C@H](C)[C@H]12` [Ertapenem], the Observed MIC was 2 µg/mL. With `C[C@@H](c1ncncc1F)[C@](O)(Cn1cncn1)c1ccc(F)cc1F` [Voriconazole], the Observed MIC was 2 µg/mL. For `COc1c(N2CCNC(C)C2)c(F)cc2c(=O)c(C(=O)O)cn(C3CC3)c12` (stereo not drawn) [Gatifloxacin], the Observed MIC was 4 µg/mL.

For the compound `CCn1cc(C(=O)O)c(=O)c2cc(F)c(N3CCNCC3)cc21` [Norfloxacin], the Observed MIC is 16 µg/mL. As for `C[C@@H](O)[C@H]1C(=O)N2C(C(=O)O)=C(S[C@@H]3CN[C@H](C(=O)N(C)C)C3)[C@H](C)[C@H]12` [MeropeneM], the Observed MIC is 2 µg/mL. As to `COc1cc(Cc2cnc(N)nc2N)cc(OC)c1OC` [Trimethoprim], the Observed MIC was 16 µg/mL.

Consider `CO/N=C(\C(=O)N[C@@H]1C(=O)N2C(C(=O)[O-])=C(C[n+]3cccc4c3CCC4)CS[C@H]12)c1csc(N)n1` [Cefpirome], for which the Observed MIC is 4 µg/mL.

`Nc1nc(/C(=C/CC(=O)O)C(=O)N[C@@H]2C(=O)N3C(C(=O)O)=CCS[C@H]23)cs1` [Ceftibuten]: the Observed MIC was 8 µg/mL.

As for `C[C@H]1[C@H](NC(=O)/C(=N\OC(C)(C)C(=O)O)c2csc(N)n2)C(=O)N1S(=O)(=O)O` [Aztreonam], the Observed MIC is 32 µg/mL. As to `CN[C@@H]1[C@H](O)[C@H](NC)[C@H]2O[C@@]3(O)C(=O)C[C@@H](C)O[C@H]3O[C@@H]2[C@H]1O` [Spectinomycin], the Observed MIC was 2 µg/mL. As to `CN(C)c1cc(NC(=O)CNC(C)(C)C)c(O)c2c1C[C@H]1C[C@H]3[C@H](N(C)C)C(O)=C(C(N)=O)C(=O)[C@@]3(O)C(O)=C1C2=O` [Tigecycline], the Observed MIC was 16 µg/mL. For the compound `CCCCCCCCCC(=O)N[C@@H](Cc1c[nH]c2ccccc12)C(=O)N[C@H](CC(N)=O)C(=O)N[C@@H](CC(=O)O)C(=O)N[C@@H]1C(=O)NCC(=O)N[C@@H](CCCN)C(=O)N[C@@H](CC(=O)O)C(=O)N[C@H](C)C(=O)N[C@@H](CC(=O)O)C(=O)NCC(=O)N[C@H](CO)C(=O)N[C@@H]([C@H](C)CC(=O)O)C(=O)N[C@@H](CC(=O)c2ccccc2N)C(=O)O[C@@H]1C` [Daptomycin], the Observed MIC is 32 µg/mL.

`NNC(=O)c1ccncc1` [Isoniazide]: the Observed MIC was 64 µg/mL.

Regarding `CCc1c(Cl)c(O)c(Cl)c(O)c1C(=O)O[C@H]1[C@H](O)[C@H](OC)[C@H](OC/C2=C\C=C\C[C@H](O)/C(C)=C/[C@H](CC)[C@@H](O[C@@H]3OC(C)(C)[C@@H](OC(=O)C(C)C)[C@H](O)[C@@H]3O)/C(C)=C/C(C)=C/C[C@@H]([C@@H](C)O)OC2=O)O[C@@H]1C` [Fidaxomicin], the Observed MIC was 8 µg/mL.

Regarding `CC1(C)S[C@@H]2[C@H](NC(=O)[C@H](N)c3ccc(O)cc3)C(=O)N2[C@H]1C(=O)O` [Amoxicillin], the Observed MIC is 4 µg/mL.

As to `CC1(C)S[C@@H]2[C@H](NC(=O)COc3ccccc3)C(=O)N2[C@H]1C(=O)O` [Phenoxymethylpenicillin], the Observed MIC was 4 µg/mL. Consider `CCN1CCN(C(=O)N[C@@H](C(=O)N[C@@H]2C(=O)N3[C@@H]2SC(C)(C)[C@@H]3C(=O)O)c2ccccc2)C(=O)C1=O` [Piperacillin], for which the Observed MIC is 4 µg/mL. `Cc1onc(-c2ccccc2)c1C(=O)N[C@@H]1C(=O)N2[C@@H]1SC(C)(C)[C@@H]2C(=O)O` [Oxacillin]: the Observed MIC was 32 µg/mL. As for `CO/N=C(\C(=O)N[C@@H]1C(=O)N2C(C(=O)O)=C(CSc3nc(=O)c(=O)[nH]n3C)CS[C@H]12)c1csc(N)n1` [Ceftriaxone], the Observed MIC is 2 µg/mL.

As for `Cc1ncc([N+](=O)[O-])n1CCO` [Metronidazole], the Observed MIC was 16 µg/mL.

`Cc1ncc([N+](=O)[O-])n1CC(C)O` (stereo not drawn) [Secnidazole]: the Observed MIC is 32 µg/mL. As to `CC[C@H]1OC(=O)[C@H](C)[C@@H](O[C@H]2C[C@@](C)(OC)[C@@H](O)[C@H](C)O2)[C@H](C)[C@@H](O[C@@H]2O[C@H](C)C[C@H](N(C)C)[C@H]2O)[C@](C)(O)C[C@@H](C)C(=O)[C@H](C)[C@@H](O)[C@]1(C)O` [Erythromycin], the Observed MIC was 16 µg/mL. `NC1CCN(c2c(F)cc3c(=O)c(C(=O)O)cn(C4CC4)c3c2Cl)C1` (stereo not drawn) [Clinafloxacin]: the Observed MIC was 32 µg/mL.

As to `CC(C)(O/N=C(\C(=O)N[C@@H]1C(=O)N2C(C(=O)[O-])=C(C[n+]3ccccc3)CS[C@H]12)c1csc(N)n1)C(=O)O` [Ceftazidime], the Observed MIC is 16 µg/mL.

As to `Cc1nnc(SCC2=C(C(=O)O)N3C(=O)[C@@H](NC(=O)Cn4cnnn4)[C@H]3SC2)s1` [Cefazolin], the Observed MIC is 32 µg/mL. Turning to `CCN[C@@H]1C[C@H](N)[C@@H](O[C@H]2OC(CN)=CC[C@H]2N)[C@H](O)[C@H]1O[C@H]1OC[C@](C)(O)[C@H](NC)[C@H]1O` [Netilmicin], the Observed MIC is 16 µg/mL. As for `CN1CCN(c2cc3c(cc2F)c(=O)c(C(=O)O)cn3-c2ccc(F)cc2)CC1` [Difloxacin], the Observed MIC is 2 µg/mL.

Consider `CO/N=C(\C(=O)N[C@@H]1C(=O)N2C(C(=O)O)=C(COC(C)=O)CS[C@H]12)c1csc(N)n1` [Cefotaxime], for which the Observed MIC is 2 µg/mL.
